Data reported in publication PMC12679539, “Synthesis and evaluation of nitroheterocyclic aromatic adamantane amides with trypanocidal activity. Part II” (RSC Medicinal Chemistry, 2025).
Read-outs that look alike come from different tables or passages of the source.

Tests used:
[1] = system: bloodstream-form Trypanosoma brucei; assay: Activity against bloodstream-form Trypanosoma brucei (Alamar Blue growth inhibition); type: cell-based, Trypanosoma brucei (strain 427); conditions: for S.I. (selectivity index): ratio of IC50 values obtained with L6 cells and T. brucei
Protocol: (§1) Bloodstream form T. brucei (strain 427) were cultured at 37 °C in modified Iscove's medium. Trypanocidal activity was assessed by growing parasites in microtiter plates in the presence of various drug concentrations. […] The plates were incubated for 48 hours at 37 °C and 20 μL Alamar Blue was then added to each well. After an additional overnight incubation, the fluorescence was determined using a Gemini fluorescent plate reader (Molecular Devices). Inhibition of growth was calculated by comparison with control values and IC50 and IC90 values were determined in triplicate using linear regression analysis.

L6 cells [2] = assay: Cytotoxic activity against rat skeletal myoblast L6 cells (Alamar Blue); type: cell-based; conditions: 120 h, cytotoxicity, 5 days
Protocol: The cytotoxicity against mammalian cells was assessed using microtitre plates. Briefly, L6 cells (a rat skeletal muscle line) were seeded at 1 × 10^4 mL^−1 in 200 μL of RPMI-1640 growth medium (with 10% fetal calf serum) containing 7 different compound concentrations in a range previously established to encompass both the IC50 and IC90 values. The plates were incubated for 5 days at 37 °C and 20 μL Alamar Blue (Biosource Ltd, Wilton, North Yorkshire England.) was then added to each well. After an additional 8 hours incubation, the fluorescence was determined using a Gemini fluorescent plate reader (Molecular Devices). Inhibition of growth was calculated by comparison with control values and IC50 and IC90 values were determined in triplicate using linear regression analysis.

T. cruzi epimastigotes [3] = assay: Activity against Trypanosoma cruzi epimastigotes (Alamar Blue growth inhibition); type: cell-based, Trypanosoma cruzi (strain CL Brener); conditions: CL Brener
Protocol: as §1, with “Trypanocidal” for “Bloodstream form T. brucei (strain 427) were cultured at 37 °C in modified Iscove's medium. Trypanocidal”, “4 days” for “48 hours”, “28” for “37”, “Blue (Biosource UK Ltd)” for “Blue”, “3 days” for “overnight”

[4] = system: L. infantum promastigotes; assay: Activity against Leishmania infantum promastigotes (resazurin assay); type: cell-based, Leishmania infantum (MHOM/MA/67/ITMAP-263); conditions: for IC50: Leishmania infantum, promastigotes, 72 h, 95% CI in brackets
Protocol: Promastigotes from the L. infantum strain (MHOM/MA/67/ITMAP-263) were cultivated in 5 ml of Schneider's insect medium, which was supplemented with 10% heat-inactivated fetal bovine serum (FBS), 200 U ml^−1 of penicillin/streptomycin, 6 μg ml^−1 of phenol red, and 5 mM of HEPES. The cultures were maintained in an incubator at 27 °C and diluted to a concentration of 2 × 10^5 cells per ml every 5 days. For the assays the parasites used were equivalent to late/log with two or three days of culture.
The efficacy of the compounds against L. infantum promastigotes was evaluated using a resazurin-based assay. Parasites were added to 100 μl of serial dilutions of the compounds in supplemented complete medium at a cell density of 5 × 10^5 ml^−1. As a quality control, a dose–response curve with the antileishmanial drug miltefosine was included in all assays. The final volume of each assay was 200 μl per well, and each condition was tested in duplicate. After a 72-hour incubation under specific conditions for each parasite, 20 μl of a 0.5 mM resazurin solution was added, and the plates were incubated for an additional 4 hours under the same conditions. Fluorescence was measured at 544 nm for excitation and 590 nm for emission using a Synergy 2 Multi-Mode Reader (Biotek, Winooski, VT, USA). Results were expressed as the percentage of parasite growth inhibition compared to controls (untreated parasites) and represent the average of at least three independent experiments. The effect was evaluated by determining the IC50 value (the concentration required to inhibit 50% growth), calculated using non-linear regression curves via GraphPad Prism version 8.1.1 for Windows (GraphPad Software, San Diego, CA, USA).

[5] = system: L. infantum intracellular amastigotes; assay: Activity against intracellular L. infantum amastigotes in THP-1 derived macrophages (luciferase); type: cell-based, Leishmania infantum (MHOM/MA/67/ITMAP-263); conditions: for inhibition at 10 µM / IC50: Leishmania infantum; for inhibition at 10 µM: read-out: L. infantum (intracellular amastigotes) % of growth inhibition at 10 μM ± ST DEV; for IC50: read-out: L. infantum (intracellular amastigotes) IC50 (μM), 95% CI
Protocol: Leishmania infantum Luciferase-expressing L. infantum (strain MHOM/MA/67/ITMAP-263) axenic amastigotes were cultured in MAA/20 medium at 37 °C with 5% CO2, as described by Sereno et al. 1998.[26] The parasites were maintained in 5 mL T25 ventilated flasks and subcultured every seven days at a concentration of 1 × 10^6 cells per mL.
The activity against intracellular amastigotes of L. infantum was evaluated using a modified method described by Santarem, Tavares, and Cordeiro-da-Silva (2019).[27] THP-1 cells were differentiated into macrophages using PMA, as previously outlined. The differentiated macrophages were then infected with L. infantum axenic amastigotes expressing episomal luciferase at a macrophage-to-amastigote ratio of 1 : 10 for four hours at 37 °C in a 5% CO2 atmosphere. After this incubation, non-internalized parasites were washed away, and various concentrations of test compounds were added in a final volume of 100 μL. A dose–response curve for miltefosine was included in all assays to serve as a quality control. Each experimental condition was tested in quadruplicate. After 72 hours of incubation, the medium was replaced with 100 μL of PBS, and 25 μL of Glo-lysis buffer from the Steady-Glo Luciferase Assay System (Promega, Madison, WI, USA) was added. The plates were then agitated at 100 rpm for 10 minutes at room temperature. Following this, 30 μL of the Steady-Glo reagent (Promega, Madison, WI, USA) was added, and the mixture was incubated for 15 minutes in the dark under the same conditions. A total of 140 μL from each well was transferred to white-bottom 96-well plates, and luminescence intensity was measured using a Synergy 2 Multi-Mode Reader (Biotek, Winooski, VT, USA). The antileishmanial effect was assessed by comparing the results with those from non-treated infected cells. The IC50 value were determined through non-linear regression analysis using GraphPad Prism version 8.1.1 for Windows (GraphPad Software, San Diego, CA, USA). Results represent the average of at least three independent experiments.

[6] = Cytotoxicity on THP-1-derived macrophages (MTT assay); type: cell-based; conditions: human, THP-1-derived macrophages (PMA-differentiated), value or interval
Protocol: The THP-1 cell line, a human leukemia line (ATCC® TIB-202™), was cultured in RPMI-1640 medium supplemented with 10% heat-inactivated fetal bovine serum (FBS), 2 mM. L-Glutamine, 100 IU mL^−1 penicillin/streptomycin, and 20 mM HEPES. The cells were maintained in a humidified incubator at 37 °C with 5% CO2. Subculturing was performed every three days, using 20 mL of media at a concentration of 2 × 10^5 cells per mL in a T75 flask. All cell culture reagents were purchased from Lonza Bioscience (Morrisville, NC).
The cytotoxicity of the compounds on THP-1-derived macrophages was evaluated using the colorimetric MTT assay (3-(4,5-dimethylthiazol-2-yl)-2,5-diphenyltetrazolium bromide), as described in Magoulas et al. (2021).[28] THP-1 cells were suspended in complete RPMI medium at a density of 1 × 10^6 cells per mL, and 100 μL of this suspension was seeded into each well of a 96-well plate. The cells were differentiated into macrophages by adding 40 ng mL^−1 of phorbol-myristate 13-acetate (PMA, Sigma, Saint Louis, MI, USA) for 24 hours, followed by replacement with fresh medium for an additional 24 hours. Subsequently, the cells were incubated with 100 μL of various compounds, diluted in complete RPMI medium, at concentrations ranging from 100 to 12.5 μM. Each condition was tested in triplicate. After 72 hours of incubation at 37 °C with 5% CO2, the medium was removed, and 200 μL of a 0.5 mg mL^−1 MTT solution, diluted in RPMI, was added to each well. The plates were incubated for an additional 4 hours. Following this incubation, 160 μL of the medium was removed and replaced with 160 μL of 2-propanol. Absorbance was measured at 570 nm using a Synergy 2 Multi-Mode Reader (Biotek, Winooski, VT, USA). Cytotoxicity was determined by presenting the CC50 (the concentration of the drug that reduces cell viability by 50%) interval or by calculating the CC50 value through non-linear regression analysis using GraphPad Prism version 8.1.1 for Windows (GraphPad Software, San Diego, CA, USA). The results represent the average of at least three independent experiments.

[7] = system: bloodstream-form Trypanosoma brucei; conditions: read-out: T. brucei IC50; cited from earlier work
T. cruzi epimastigotes [8] = conditions: read-out: T. cruzi (epimastigotes) IC50; cited from earlier work
[9] = system: T. cruzi intracellular amastigotes; assay: microbe, parasite or virus in culture; type: cell-based, Trypanosoma cruzi CL Brener PpyRE9h:mScarlet; conditions: Trypanosoma cruzi, 120 h; in HeLa cells, 5 days
Protocol: Assays were performed in 96-well black (clear bottom) microtitre plates (Corning Inc.). HeLa ^† cells were seeded at 10^4 per well, incubated for 3 days, and then infected with T. cruzi CL Brener PpyRE9h : mScarlet[25] culture form trypomastigotes (1 : 1 multiplicity of infection). After 16 hours, extracellular parasites were removed by washing in growth medium (×3), test compounds were added, and the plates incubated for 5 days. Fluorescence intensities were then determined using a BMG FLUOstar Omega plate reader (ex 545 nm, em 590 nm), and the data analysed using GraphPad Prism 9.0 software. The values were expressed as IC50/90 ± SD and are the mean of triplicate experiments.

L6 cells [10] = system: L6 cells; parameters: method as in PMID 26479031; conditions: cytotoxicity; cited from earlier work

Q: Which results are given for O=C(NCc1ccc(C2C3CC4CC(C3)CC2C4)cc1)c1ccc([N+](=O)[O-])o1 (centres unmarked) [2b, N-[4-(2-Adamantyl)benzyl]-5-nitrofuran-2-carboxamide]?
A: IC50 ([1]; Trypanosoma brucei, bloodstream form, concentration that inhibits growth by 50%, read-out: T. brucei IC50): 17 ± 3 nM; IC90 ([1]; Trypanosoma brucei, bloodstream form, concentration that inhibits growth by 90%, read-out: T. brucei IC90): 31 ± 1 nM; S.I. (selectivity index) [1]: 95; IC50 (L6 cells [2]): 1600 ± 100 nM; IC50 (T. cruzi epimastigotes [3]): 560 ± 20 nM; IC90 (T. cruzi epimastigotes [3]): 1200 ± 20 nM; IC50 [4]: 0.09 µM; inhibition at 10 µM ([5]; THP-1, 72 h): 84.6 ± 15.6%; IC50 ([5]; THP-1, 72 h): 3.97 µM; CC50 at 72 h [6]: 12500 to 25000 nM

Q: For CCCCCCCCCCCCCCCCOP(=O)([O-])OCC[N+](C)(C)C [MF, miltefosine, reference compound], which IC50 [4] is on record?
A: The IC50 was 11.9 µM.

Q: What about the “SI (promastigotes) CC50/Li IC50” value ([4]; THP-1 CC50 / L. infantum promastigote IC50) of the same molecule?
A: Its value is 2.5.

Q: And the inhibition at 10 µM ([5]; THP-1, 72 h)?
A: Its inhibition at 10 µM is 92 ± 5%.

Q: What about the IC50 ([5]; THP-1 derived macrophages, 72 h, 95% CI in brackets) of the same molecule?
A: Its IC50 is 2.65 µM.

Q: What about the “SI (intracellular amastigotes) CC50/Li ia IC50” value ([5]; THP-1 CC50 / L. infantum intracellular amastigote IC50) of the same molecule?
A: Its value is 11.3.

Q: What about the CC50 at 72 h [6] of the same molecule?
A: The CC50 at 72 h was 30000 nM.

Q: Which “S.I. (selectivity index)” value [1] does the source give for CC1CS(=O)(=O)CCN1/N=C/c1ccc([N+](=O)[O-])o1 (centres unmarked) [Nfx, nifurtimox] here?
A: Its value is 7.

Q: What about the IC50 [7] of the same molecule?
A: Its IC50 is 4400 ± 700 nM.

Q: And the IC50 (T. cruzi epimastigotes [8])?
A: The IC50 was 3100 ± 500 nM.

Q: What does the source list for O=C(Cn1ccnc1[N+](=O)[O-])NCc1ccccc1 [Bzn, benznidazole, reference compound]?
A: IC50 (T. cruzi epimastigotes [3]): 5400 ± 200 nM; IC50 [9]: 1040 ± 320 nM; IC90 [9]: 2540 ± 810 nM; IC50 (L6 cells [10]): 510000 ± 22000 nM
